± gives the uncertainty stated by the source.
Experiment: xn = mol fraction of the nth substance listed

COCCOCCOC + CCOC(=O)OCC
viscosity [mPa·s], 101.33 kPa
Settings	298.15 K	308.15 K	318.15 K
x1 = 0.0487	0.761 ± 0.01	0.669 ± 0.009	0.572 ± 0.03
x1 = 0.0871	0.774 ± 0.01	0.674 ± 0.009	0.593 ± 0.008
x1 = 0.1367	0.787 ± 0.01	0.68 ± 0.009	0.6 ± 0.008
x1 = 0.18	0.798 ± 0.01	0.687 ± 0.009	0.607 ± 0.008
x1 = 0.2621	0.817 ± 0.01	0.706 ± 0.009	0.618 ± 0.008
x1 = 0.306	0.828 ± 0.011	0.713 ± 0.009	0.626 ± 0.008
x1 = 0.3935	0.849 ± 0.011	0.731 ± 0.01	0.64 ± 0.009
x1 = 0.4303	0.857 ± 0.011	0.739 ± 0.01	0.652 ± 0.009
x1 = 0.4835	0.87 ± 0.011	0.747 ± 0.01	0.656 ± 0.009
x1 = 0.557	0.886 ± 0.011	0.766 ± 0.01	0.665 ± 0.009
x1 = 0.6202	0.899 ± 0.011	0.772 ± 0.01	0.674 ± 0.009
x1 = 0.6549	0.907 ± 0.011	0.783 ± 0.01	0.679 ± 0.009
x1 = 0.7104	0.92 ± 0.012	0.79 ± 0.01	0.687 ± 0.009
x1 = 0.7618	0.933 ± 0.012	0.799 ± 0.01	0.695 ± 0.009
x1 = 0.8134	0.945 ± 0.012	0.809 ± 0.01	0.702 ± 0.009
x1 = 0.8478	0.952 ± 0.012	0.814 ± 0.01	0.707 ± 0.009
x1 = 0.938	0.97 ± 0.012	0.825 ± 0.011	0.719 ± 0.009
x1 = 0.9718	0.979 ± 0.012	0.832 ± 0.011	0.725 ± 0.009
x2 = 0.0073	0.987 ± 0.012	0.837 ± 0.011	0.727 ± 0.009

COCCOCCOC + CC(C)(C)O
viscosity [mPa·s], 101 kPa
Settings	x1 = 0.1032	x1 = 0.2054	x1 = 0.3014	x1 = 0.4031	x1 = 0.5025	x1 = 0.6046	x1 = 0.7072	x1 = 0.8058	x1 = 0.8973
298.15 K	2.377 ± 0.03	1.768 ± 0.022	1.453 ± 0.018	1.259 ± 0.016	1.146 ± 0.015	1.073 ± 0.014	1.032 ± 0.013	1.008 ± 0.013	0.995 ± 0.013
303.15 K	1.954 ± 0.024	1.523 ± 0.019	1.274 ± 0.016	1.123 ± 0.014	1.033 ± 0.013	0.974 ± 0.013	0.943 ± 0.012	0.921 ± 0.012	0.915 ± 0.012
308.15 K	1.625 ± 0.021	1.319 ± 0.017	1.13 ± 0.015	1.009 ± 0.013	0.937 ± 0.012	0.888 ± 0.012	0.864 ± 0.011	0.852 ± 0.011	0.844 ± 0.011

CC=CC(=O)O + CCOC(C)=O
viscosity [mPa·s], 101 kPa
Settings	x1 = 0.0495	x1 = 0.0995	x1 = 0.1509	x1 = 0.1971	x1 = 0.2463	x1 = 0.2605
298.15 K	0.4663 ± 0.013	0.5094 ± 0.014	0.5447 ± 0.015	0.5907 ± 0.016	0.6329 ± 0.017	0.6467 ± 0.017
303.15 K	0.4417 ± 0.012	0.4788 ± 0.013	0.5181 ± 0.014	0.5583 ± 0.015	0.5921 ± 0.016	0.6093 ± 0.016
313.15 K	0.4005 ± 0.011	0.4309 ± 0.011	0.4587 ± 0.012	0.494 ± 0.013	0.5254 ± 0.014	0.5496 ± 0.015
323.15 K	0.361 ± 0.0097	0.3895 ± 0.01	0.413 ± 0.011	0.4469 ± 0.012	0.4704 ± 0.013	0.4917 ± 0.013

Oc1ccccc1 + CCCCNCCCC
298.16 K, 101 kPa
Settings	viscosity [mPa·s]
x1 = 0.5012	5.109 ± 0.096
x1 = 0.6086	13.4 ± 0.23
x1 = 0.6558	20.06 ± 0.37
x1 = 0.6934	34.09 ± 0.72
x1 = 0.7223	46.47 ± 1.1
x1 = 0.753	64.82 ± 1.7
x1 = 0.7713	74.82 ± 2.1
x1 = 0.7925	84.1 ± 2.5
x1 = 0.8147	89.23 ± 2.7
x1 = 0.8446	82.1 ± 2.4
x1 = 0.875	62.86 ± 1.6
x1 = 0.8948	49.73 ± 1.1

ClC(Cl)C(Cl)Cl + C1COCCO1
303.15 K, 101.33 kPa
Settings	viscosity [mPa·s]
x2 = 0.0869	1.441 ± 0.01
x2 = 0.1835	1.419 ± 0.01
x2 = 0.2833	1.392 ± 0.01
x2 = 0.3491	1.372 ± 0.0099
x2 = 0.461	1.331 ± 0.0096
x2 = 0.5705	1.287 ± 0.0093
x2 = 0.6587	1.245 ± 0.009
x2 = 0.7613	1.198 ± 0.0087
x2 = 0.8189	1.169 ± 0.0084
x2 = 0.908	1.128 ± 0.0081

— the CheMixHub viscosity set
